Laboratory results published in publication PMC6979384, “Characterization of the plant homeodomain (PHD) reader family for their histone tail interactions” (Epigenetics & Chromatin, 2020).

Experiments:
Assay in all cases: Histone peptide microarray
Assay type in all cases: binding, human
Conditions in all cases: histone peptide array, GST-tagged reader
AIRE (PP) = system: AIRE (PP)
Method in brief: (§1)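 Using an optimized microarray protocol, purified GST-tagged PHD fingers were incubated at 0.5 μM on 293 histone peptides with single or multiple modifications, and array signal was recorded as the average of 4 replicates.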

BAZ2B = system: BAZ2B
Method in brief: as §1

BPTF (PB) = system: BPTF (PB)
Method in brief: as §1

CHD4 (PPCC) = system: CHD4 (PPCC)
Method in brief: as §1

CHD5 (PCC) = system: CHD5 (PCC)
Method in brief: as §1

CHD5 (PPCC) = system: CHD5 (PPCC)
Method in brief: as §1

DIDO1 = system: DIDO1
Method in brief: as §1

DPF2 (PPC2W2) = system: DPF2 (PPC2W2)
Method in brief: as §1

ING1 = system: ING1
Method in brief: as §1

ING2 = system: ING2
Method in brief: as §1

ING3 = system: ING3
Method in brief: as §1

ING4 = system: ING4
Method in brief: as §1

ING5 = system: ING5
Method in brief: as §1

KDM4C (TTP) = system: KDM4C (TTP)
Method in brief: as §1

KDM5A (1) = system: KDM5A (1)
Method in brief: as §1

KDM5A (3) = system: KDM5A (3)
Method in brief: as §1

KDM5B (1) = system: KDM5B (1)
Method in brief: as §1

KDM5B (3) = system: KDM5B (3)
Method in brief: as §1

KDM7A = system: KDM7A
Method in brief: as §1

MLL5 = system: MLL5
Method in brief: as §1

MORC3 (CW) = system: MORC3 (CW)
Method in brief: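 Purified PHD finger domains fused to GST are screened against 293 synthetic histone peptides bearing one or several post-translational modifications. The protein is used at 0.5 μM, and the signal from four replicate arrays is averaged, with standard deviation given.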

PHF13 = system: PHF13
Method in brief: as §1

PHF21A = system: PHF21A
Method in brief: as §1

PHF23 = system: PHF23
Method in brief: as §1

PHF2 = system: PHF2
Method in brief: as §1

PHF8 = system: PHF8
Method in brief: as §1

PHRF1 (RP) = system: PHRF1 (RP)
Method in brief: as §1

RAG2 = system: RAG2
Method in brief: as §1

SP140L = system: SP140L
Method in brief: as §1

TAF3 = system: TAF3
Method in brief: as §1

TRIM66 (PB) = system: TRIM66 (PB)
Method in brief: as §1

[1] = PB = PHD + Bromodomain, arrays performed twice, n of 4
[2] = PPCC = Dual PHD + Dual Chromodomain, arrays performed twice, n of 4
[3] = sheet "Array Heatmap", total n = 4

For “H3.3 (27-45): H3.3 27-45 (KSAPSTGGVKKPHRYRPGT; UniProt P84243 28-46, looked up, fragment)”, the “Array Heatmap signal, AIRE (PP)” value (AIRE (PP); arrays performed twice, n of 4) was 0.4994, the “Array Heatmap signal, BAZ2B” value (BAZ2B; arrays performed twice, n of 4) was 0.4692 and the “Array Heatmap signal, BPTF (PB)” value (BPTF (PB); [1]) was 0.34. For the same substance, the “Array Heatmap signal, CHD4 (PPCC)” value (CHD4 (PPCC); [2]) was 0.5867, the “Array Heatmap signal, CHD5 (PCC)” value (CHD5 (PCC); PCC = PHD + Dual Chromodomain, arrays performed twice, n of 4) was 0.7947 and the “Array Heatmap signal, CHD5 (PPCC)” value (CHD5 (PPCC); [2]) was 0.5478. For the same substance, the “Array Heatmap signal, DIDO1” value (DIDO1; arrays performed twice, n of 4) was 0.7133, the “Array Heatmap signal, DPF2 (PPC2W2)” value (DPF2 (PPC2W2); PPC2W2 = Dual PHD + C2W2-type Zn-finger, arrays performed twice, n of 4) was 0.6084 and the “Array Heatmap signal, ING1” value (ING1; arrays performed twice, n of 4) was 0.4846. For the same substance, the “Array Heatmap signal, ING2” value (ING2; arrays performed twice, n of 4) was 0.588, the “Array Heatmap signal, ING3” value (ING3; arrays performed twice, n of 4) was 0.4546 and the “Array Heatmap signal, ING4” value (ING4; arrays performed twice, n of 4) was 0.4566. The “Array Heatmap signal, ING5” value (ING5; arrays performed twice, n of 4) was 0.3478, the “Array Heatmap signal, KDM4C (TTP)” value (KDM4C (TTP); TTP = Tandem Tudor domain + PHD, arrays performed twice, n of 4) was 0.5199 and the “Array Heatmap signal, KDM5A (1)” value (KDM5A (1); arrays performed twice, n of 4) was 0.4676. For the same substance, the “Array Heatmap signal, KDM5A (3)” value (KDM5A (3); arrays performed twice, n of 4) was 0.405, the “Array Heatmap signal, KDM5B (1)” value (KDM5B (1); arrays performed twice, n of 4) was 0.6276 and the “Array Heatmap signal, KDM5B (3)” value (KDM5B (3); arrays performed twice, n of 4) was 0.4762. The “Array Heatmap signal, KDM7A” value (KDM7A; arrays performed twice, n of 4) was 0.4316, the “Array Heatmap signal, MLL5” value (MLL5; arrays performed twice, n of 4) was 0.5451 and the “Array Heatmap signal, MORC3 (CW)” value (MORC3 (CW); CW = CW-type Zn-finger, arrays performed twice, n of 4) was 0.3459. For the same substance, the “Array Heatmap signal, PHF13” value (PHF13; arrays performed twice, n of 4) was 0.5824, the “Array Heatmap signal, PHF21A” value (PHF21A; arrays performed twice, n of 4) was 0.4761 and the “Array Heatmap signal, PHF23” value (PHF23; arrays performed twice, n of 4) was 0.5188. For the same substance, the “Array Heatmap signal, PHF2” value (PHF2; arrays performed twice, n of 4) was 0.4329, the “Array Heatmap signal, PHF8” value (PHF8; arrays performed twice, n of 4) was 0.3699 and the “Array Heatmap signal, PHRF1 (RP)” value (PHRF1 (RP); arrays performed twice, n of 4) was 0.4032. For the same substance, the “Array Heatmap signal, RAG2” value (RAG2; arrays performed twice, n of 4) was 0.2569, the “Array Heatmap signal, SP140L” value (SP140L; arrays performed twice, n of 4) was 0.3705 and the “Array Heatmap signal, TAF3” value (TAF3; arrays performed twice, n of 4) was 0.2584. For the same substance, the “Array Heatmap signal, TRIM66 (PB)” value (TRIM66 (PB); [1]) was 0.5678.
With “H3.3K18ac + K23ac + K27ac + S28p: H3.3 15-34” the “Array Heatmap signal, AIRE (PP)” value (AIRE (PP); [3]) was 0.4033, the “Array Heatmap signal, BAZ2B” value (BAZ2B; [3]) was 0.4455 and the “Array Heatmap signal, BPTF (PB)” value (BPTF (PB); [3]) was 0.3427. For the same substance, the “Array Heatmap signal, CHD4 (PPCC)” value (CHD4 (PPCC); [3]) was 0.5345, the “Array Heatmap signal, CHD5 (PCC)” value (CHD5 (PCC); [3]) was 0.7419 and the “Array Heatmap signal, CHD5 (PPCC)” value (CHD5 (PPCC); [3]) was 0.5304. For the same substance, the “Array Heatmap signal, DIDO1” value (DIDO1; [3]) was 0.747, the “Array Heatmap signal, DPF2 (PPC2W2)” value (DPF2 (PPC2W2); [3]) was 0.6362 and the “Array Heatmap signal, ING1” value (ING1; [3]) was 0.5496. The “Array Heatmap signal, ING2” value (ING2; [3]) was 0.6018, the “Array Heatmap signal, ING3” value (ING3; [3]) was 0.4727 and the “Array Heatmap signal, ING4” value (ING4; [3]) was 0.4374. For the same substance, the “Array Heatmap signal, ING5” value (ING5; [3]) was 0.3405, the “Array Heatmap signal, KDM4C (TTP)” value (KDM4C (TTP); [3]) was 0.4483 and the “Array Heatmap signal, KDM5A (1)” value (KDM5A (1); [3]) was 0.4461. For the same substance, the “Array Heatmap signal, KDM5A (3)” value (KDM5A (3); [3]) was 0.436, the “Array Heatmap signal, KDM5B (1)” value (KDM5B (1); [3]) was 0.64 and the “Array Heatmap signal, KDM5B (3)” value (KDM5B (3); [3]) was 0.4567. For the same substance, the “Array Heatmap signal, KDM7A” value (KDM7A; [3]) was 0.3117, the “Array Heatmap signal, MLL5” value (MLL5; [3]) was 0.5576 and the “Array Heatmap signal, MORC3 (CW)” value (MORC3 (CW); [3]) was 0.3503. The “Array Heatmap signal, PHF13” value (PHF13; [3]) was 0.5819, the “Array Heatmap signal, PHF21A” value (PHF21A; [3]) was 0.4374 and the “Array Heatmap signal, PHF23” value (PHF23; [3]) was 0.5591. For the same substance, the “Array Heatmap signal, PHF2” value (PHF2; [3]) was 0.5396, the “Array Heatmap signal, PHF8” value (PHF8; [3]) was 0.3574 and the “Array Heatmap signal, PHRF1 (RP)” value (PHRF1 (RP); [3]) was 0.4303. The “Array Heatmap signal, RAG2” value (RAG2; [3]) was 0.2492, the “Array Heatmap signal, SP140L” value (SP140L; [3]) was 0.326 and the “Array Heatmap signal, TAF3” value (TAF3; [3]) was 0.2571. For the same substance, the “Array Heatmap signal, TRIM66 (PB)” value (TRIM66 (PB); [3]) was 0.5994.
